Test results published in PMC12196007 (Molecules, 2025).
Where “and” joins values, the source holds several entries; their conditions need not be identical. Equal entries are not always repeated. Where two headings read alike, the source gives them in different places.

Experiments:
[1] = 2 h incubation of CUR solutions with intestinal segments (residual CUR); format: in vitro ADME, rats
[2] = In vivo pharmacokinetic study, oral gavage; design: species or system SD rats
Procedure: The analysis was performed on a Q Exactive™ hybrid quadrupole-Orbitrap™ mass spectrometer (Thermo Fisher Scientific, USA) with the following parameters: Chromatographic separation was achieved by Agilent ZORBAX SB-C18 column (150 mm × 4.6 mm, 5 μm) with a mobile phase of acetonitrile and 0.1% formic acid aqueous solution (48:52, v/v) at a flow rate of 1 mL·min^−1 while maintaining the column temperature at 30 °C. The mass spectrometer operated in positive ion mode with an electrospray ionization (ESI) source, employing multiple reaction monitoring (MRM) for detection. Key ionization parameters included a capillary voltage of 3.0 kV and nitrogen as the collision gas.
Twelve SD rats (220 ± 20 g, equal numbers of males and females) were fasted for 24 h with free access to water and randomly allocated into two groups (n = 6 per group). […] Blood samples (~0.5 mL) were collected from the jugular vein into anticoagulant tubes at 0, 0.25, 0.5, 1, 2, 4, 6, 8, 12, and 24 h after administration. After centrifugation to collect the supernatant, samples were spiked with 20 μL of a 100 μg·mL^−1 internal standard solution, extracted twice with ethyl acetate for protein precipitation, and the combined organic phases were evaporated using a refrigerated vacuum concentrator.

[3] = In vitro drug release (dialysis bag, PBS); format: physicochemical
Procedure: The release media were designed to simulate physiological conditions of the human gastrointestinal tract: pH 2.0 (simulated gastric fluid), pH 6.8 (simulated intestinal fluid), and pH 7.4 (to mimic the alkaline colonic terminus). […] Aliquots (0.5 mL) were collected at predetermined intervals (0.5, 1, 2, 4, 6, 8, 12, and 24 h), with the release medium replenished immediately after each sampling to maintain sink conditions. The experiment was repeated three times. The drug release was quantified using a validated HPLC method. Cumulative release percentages were plotted against time, and release kinetics were analyzed using four models: zero-order kinetics, first-order kinetics, Higuchi equation, and Weibull distribution function. Key parameters, including T50 (time required for 50% drug dissolution) and Td (time required for 63.2% drug dissolution), were calculated to evaluate pH-dependent release profiles.

[4] = Stability of CUR sample solutions at room temperature (HPLC method validation); format: physicochemical; conditions: 0-20 h
Procedure: 2.4 Precision and Stability […]
was diluted to three concentration levels: low (1 μg·mL-1), medium (10 μg·mL-1), and […]
content was measured by HPLC in triplicate to assess intraday precision. The same samples were analyzed once daily for five consecutive days to assess interday […]
temperature. Samples were collected at 0, 4, 8, 12, and 20 hours and analyzed by […]
for low, medium, and high concentrations, respectively. The interday RSD values were 1.97%, 2.00%, and 1.94%, indicating good method precision. Stability results […]
temperature for up to 20 hours. […]

[5] = cited from earlier work
Caco-2 cells = experiment: Cellular uptake in Caco-2 cell monolayer; format: in vitro ADME, human; conditions: Caco-2, 200 μg·mL−1 CUR, 20 min
Procedure: Caco-2 cells were seeded into the donor chamber of Transwell inserts at a density of 1 × 10^5 cell·mL^−1 and cultured in complete medium. Transepithelial electrical resistance (TEER) was measured on the 0th, 3rd, 5th, 7th, 10th, and 15th days to monitor monolayer integrity. A TEER value exceeding 700 Ω·cm² was established as the threshold for successful formation of the human intestinal epithelial barrier model. Following model validation, the cell surface was equilibrated with PBS for 30 min and rinsed to remove debris. […] Cellular uptake was terminated by rapid washing with ice-cold PBS to remove surface-bound drug and nonviable cells. […] Cellular uptake was calculated according to Equation (4).
The established Caco-2 cell monolayer model imitating human intestinal epithelium was equilibrated in pH 7.4 PBS at 37 °C within a CO2 incubator for 30 min. After removal of PBS, the cell surface was rinsed three times. […] The uptake process was terminated by ice-cold PBS, and residual solutions were removed by washing. Cells were then scraped into centrifuge tubes, sonicated, and quantified for uptake measurements.

[6] = In situ single-pass intestinal perfusion; format: in vivo, Sprague–Dawley (SD) rats; conditions: for Papp: both sexes, Sprague-Dawley, rat, other: in situ single-pass intestinal perfusion, read-out: Peff (effective permeability coefficient)
Procedure: The rats were anesthetized and secured in a supine position on a surgical platform maintained at 37 °C. […] A 10 cm intestinal segment was isolated, and incisions were made at both ends. Silicone tubes were inserted into the incisions and ligated. […] Subsequently, the test sample was perfused through the intestinal loop. […] The collected samples were centrifuged, and the supernatant was mixed with methanol to precipitate proteins. After a second centrifugation, the resulting supernatant was analyzed by HPLC.

[7] = both sexes, Sprague-Dawley, rat, plasma, po, 50 mg/kg

## COc1cc(/C=C/C(=O)CC(=O)/C=C/c2ccc(O)c(OC)c2)ccc1O [CUR, Curcumin]
[1]; colonic segment
  Residual CUR percentage: 92.90 ± 0.96%
[1]; duodenal segment
  Residual CUR percentage: 99.63 ± 0.34%
[1]; ileal segment
  Residual CUR percentage: 94.41 ± 1.57%
[1]; jejunal segment
  Residual CUR percentage: 95.63 ± 0.47%
[2]; [7]
  AUC(0-inf): 144 ± 25.4 ng·h/mL
  AUC(0-t): 106 ± 21.8 ng·h/mL
  Cmax: 64.9 ± 12 ng/mL
  Tmax: 1 h
  half-life: 3.97 ± 1.48 h
[2]; both sexes, Sprague-Dawley, rat, plasma, po, 50 mg/kg, read-out: MRT0-t
  MRT last: 2.35 ± 0.67 h
[2]; both sexes, Sprague-Dawley, rat, plasma, po, 50 mg/kg, read-out: MRT0-∞
  MRT inf: 5.13 ± 1.36 h
[2]; rats, oral, 50 mg·kg−1
  Time within which almost completely eliminated: ≤ 4 h
[3]; 4 h
  Cumulative release of CUR at 4 h: ~80%
[3]; pH 2.0, 24 h
  Cumulative release rate at 24 h: 88.89%
[3]; pH 6.8, 24 h
  Cumulative release rate at 24 h: 90.17%
[3]; pH 7.4, 24 h
  Cumulative release rate at 24 h: 86.64%
[4]; CUR solution for intestinal mucus penetration study, 10 μg·mL-1, room temperature
  Stability: RSD of CUR concentration: 0.28%
[4]; CUR solution for release studies, 50 μg·mL-1, room temperature
  Stability: RSD of CUR concentration: 0.63%
[5]
  Plasma concentrations as share of the administered dose (oral bioavailability): ~1%
Caco-2 cells; n = 3
  Drug Intake, mean (x¯): 43.82 ± 1.74 µg/mg
Caco-2 cells; per mg protein
  Drug Intake (single replicates): 42.03 µg/mg and 44.28 µg/mg and 45.46 µg/mg
[6]; colon
  Papp: 8.3 ± 0.1 ×10⁻⁶ cm/s
  Ka (absorption rate constant): 0.29 ± 0.0095 min⁻¹
[6]; duodenum
  Papp: 27.2 ± 0.5 ×10⁻⁶ cm/s
  Ka (absorption rate constant): 0.52 ± 0.0048 min⁻¹
[6]; ileum
  Papp: 23.3 ± 1.1 ×10⁻⁶ cm/s
  Ka (absorption rate constant): 0.47 ± 0.0208 min⁻¹
[6]; jejunum
  Papp: 26.1 ± 3.7 ×10⁻⁶ cm/s
  Ka (absorption rate constant): 0.47 ± 0.0088 min⁻¹
[6]; colon, 15 min
  Remaining dosage: 97.47 ± 0.83%
[6]; colon, 30 min
  Remaining dosage: 92.6 ± 1.04%
[6]; colon, 45 min
  Remaining dosage: 87.97 ± 1.07%
[6]; colon, 60 min
  Remaining dosage: 79.51 ± 3.48%
[6]; colon, 75 min
  Remaining dosage: 78.03 ± 0.99%
[6]; colon, 90 min
  Remaining dosage: 73.23 ± 0.45%
[6]; colon, 105 min
  Remaining dosage: 70.98 ± 0.98%
[6]; colon, 120 min
  Remaining dosage: 66.55 ± 1.07%
[6]; duodenum, 15 min
  Remaining dosage: 93.61 ± 0.59%
[6]; duodenum, 30 min
  Remaining dosage: 89.22 ± 1.18%
[6]; duodenum, 45 min
  Remaining dosage: 79.11 ± 0.58%
[6]; duodenum, 60 min
  Remaining dosage: 69.18 ± 1.92%
[6]; duodenum, 75 min
  Remaining dosage: 61.93 ± 1.54%
[6]; duodenum, 90 min
  Remaining dosage: 54.95 ± 0.33%
[6]; duodenum, 105 min
  Remaining dosage: 45.36 ± 1.72%
[6]; duodenum, 120 min
  Remaining dosage: 42.13 ± 0.88%
[6]; ileum, 15 min
  Remaining dosage: 93.68 ± 0.37%
[6]; ileum, 30 min
  Remaining dosage: 89.84 ± 0.89%
[6]; ileum, 45 min
  Remaining dosage: 82.04 ± 1.06%
[6]; ileum, 60 min
  Remaining dosage: 72.17 ± 1.08%
[6]; ileum, 75 min
  Remaining dosage: 64.11 ± 1.25%
[6]; ileum, 105 min
  Remaining dosage: 51.48 ± 1.18%
[6]; ileum, 120 min
  Remaining dosage: 45.11 ± 3.27%
[6]; jejunum, 15 min
  Remaining dosage: 94.43 ± 2.05%
[6]; jejunum, 30 min
  Remaining dosage: 90.52 ± 0.80%
[6]; jejunum, 45 min
  Remaining dosage: 87.97 ± 0.43%
[6]; jejunum, 60 min
  Remaining dosage: 77.07 ± 0.97%
[6]; jejunum, 75 min
  Remaining dosage: 70.44 ± 0.82%
[6]; jejunum, 90 min
  Remaining dosage: 62.99 ± 0.92%
[6]; jejunum, 105 min
  Remaining dosage: 54.99 ± 0.74%
[6]; jejunum, 120 min
  Remaining dosage: 46.26 ± 0.94%
